{
  "source": "paper PMC5154332",
  "about": "(Neuropharmacology, 2017)",
  "key": {"[1]": {"tested_on": "rat model of myotonia", "assay": "In vivo antimyotonic activity, time of righting reflex"}, "[2]": {"biological_target": "hNav1.4 – WT (Homo sapiens, UniProt P35499)", "sequence (P35499 whole entry)": "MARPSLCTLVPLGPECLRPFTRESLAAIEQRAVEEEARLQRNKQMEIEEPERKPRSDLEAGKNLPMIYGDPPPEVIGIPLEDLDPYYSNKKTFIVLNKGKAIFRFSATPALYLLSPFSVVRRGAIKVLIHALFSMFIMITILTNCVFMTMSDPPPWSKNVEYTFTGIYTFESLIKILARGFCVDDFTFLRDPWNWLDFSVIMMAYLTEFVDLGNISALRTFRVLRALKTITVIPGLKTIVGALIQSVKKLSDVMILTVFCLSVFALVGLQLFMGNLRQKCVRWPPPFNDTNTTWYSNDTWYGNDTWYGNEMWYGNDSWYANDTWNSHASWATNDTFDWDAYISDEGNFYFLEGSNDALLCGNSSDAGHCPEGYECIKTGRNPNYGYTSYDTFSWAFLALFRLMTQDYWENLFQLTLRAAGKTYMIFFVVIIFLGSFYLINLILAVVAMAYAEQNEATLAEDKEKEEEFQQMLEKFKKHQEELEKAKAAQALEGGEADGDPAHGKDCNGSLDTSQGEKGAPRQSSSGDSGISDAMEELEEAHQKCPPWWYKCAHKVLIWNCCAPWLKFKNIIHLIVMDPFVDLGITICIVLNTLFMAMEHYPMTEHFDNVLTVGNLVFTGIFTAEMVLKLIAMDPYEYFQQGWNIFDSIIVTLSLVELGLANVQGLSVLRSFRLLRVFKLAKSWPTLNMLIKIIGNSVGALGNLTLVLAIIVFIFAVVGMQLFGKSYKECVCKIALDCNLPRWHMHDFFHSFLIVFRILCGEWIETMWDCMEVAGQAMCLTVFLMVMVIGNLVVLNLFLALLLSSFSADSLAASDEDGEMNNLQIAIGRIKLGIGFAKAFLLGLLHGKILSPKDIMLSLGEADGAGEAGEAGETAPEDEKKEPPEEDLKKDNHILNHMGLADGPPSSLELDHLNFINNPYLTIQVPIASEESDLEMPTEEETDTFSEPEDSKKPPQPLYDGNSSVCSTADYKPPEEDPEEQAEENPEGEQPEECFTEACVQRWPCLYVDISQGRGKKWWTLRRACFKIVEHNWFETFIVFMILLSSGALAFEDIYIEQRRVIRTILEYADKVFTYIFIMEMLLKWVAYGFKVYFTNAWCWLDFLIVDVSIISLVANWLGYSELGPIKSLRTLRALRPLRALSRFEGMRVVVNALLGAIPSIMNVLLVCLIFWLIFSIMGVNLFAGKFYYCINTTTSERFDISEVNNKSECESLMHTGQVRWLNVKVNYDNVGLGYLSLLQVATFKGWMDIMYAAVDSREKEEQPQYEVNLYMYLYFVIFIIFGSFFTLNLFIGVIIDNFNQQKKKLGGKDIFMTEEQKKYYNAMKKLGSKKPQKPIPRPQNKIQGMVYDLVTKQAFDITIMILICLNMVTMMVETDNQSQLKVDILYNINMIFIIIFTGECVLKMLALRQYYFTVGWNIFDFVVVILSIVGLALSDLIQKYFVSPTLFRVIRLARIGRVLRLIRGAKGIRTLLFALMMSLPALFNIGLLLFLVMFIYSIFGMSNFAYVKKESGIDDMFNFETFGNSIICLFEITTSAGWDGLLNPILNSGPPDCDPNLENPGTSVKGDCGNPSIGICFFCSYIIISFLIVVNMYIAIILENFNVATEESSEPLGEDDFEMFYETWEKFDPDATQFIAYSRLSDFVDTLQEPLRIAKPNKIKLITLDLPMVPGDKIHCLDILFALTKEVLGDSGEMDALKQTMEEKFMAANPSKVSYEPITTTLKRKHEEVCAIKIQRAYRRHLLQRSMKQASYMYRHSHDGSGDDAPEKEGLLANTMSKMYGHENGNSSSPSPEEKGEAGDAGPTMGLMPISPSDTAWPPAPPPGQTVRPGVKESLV", "conditions": "cited from earlier work; for 0.1-to-10 Hz ratio: ratio of IC50 values"}, "[3]": {"biological_target": "hERG potassium channel (Homo sapiens, UniProt Q12809)", "sequence (Q12809 whole entry)": "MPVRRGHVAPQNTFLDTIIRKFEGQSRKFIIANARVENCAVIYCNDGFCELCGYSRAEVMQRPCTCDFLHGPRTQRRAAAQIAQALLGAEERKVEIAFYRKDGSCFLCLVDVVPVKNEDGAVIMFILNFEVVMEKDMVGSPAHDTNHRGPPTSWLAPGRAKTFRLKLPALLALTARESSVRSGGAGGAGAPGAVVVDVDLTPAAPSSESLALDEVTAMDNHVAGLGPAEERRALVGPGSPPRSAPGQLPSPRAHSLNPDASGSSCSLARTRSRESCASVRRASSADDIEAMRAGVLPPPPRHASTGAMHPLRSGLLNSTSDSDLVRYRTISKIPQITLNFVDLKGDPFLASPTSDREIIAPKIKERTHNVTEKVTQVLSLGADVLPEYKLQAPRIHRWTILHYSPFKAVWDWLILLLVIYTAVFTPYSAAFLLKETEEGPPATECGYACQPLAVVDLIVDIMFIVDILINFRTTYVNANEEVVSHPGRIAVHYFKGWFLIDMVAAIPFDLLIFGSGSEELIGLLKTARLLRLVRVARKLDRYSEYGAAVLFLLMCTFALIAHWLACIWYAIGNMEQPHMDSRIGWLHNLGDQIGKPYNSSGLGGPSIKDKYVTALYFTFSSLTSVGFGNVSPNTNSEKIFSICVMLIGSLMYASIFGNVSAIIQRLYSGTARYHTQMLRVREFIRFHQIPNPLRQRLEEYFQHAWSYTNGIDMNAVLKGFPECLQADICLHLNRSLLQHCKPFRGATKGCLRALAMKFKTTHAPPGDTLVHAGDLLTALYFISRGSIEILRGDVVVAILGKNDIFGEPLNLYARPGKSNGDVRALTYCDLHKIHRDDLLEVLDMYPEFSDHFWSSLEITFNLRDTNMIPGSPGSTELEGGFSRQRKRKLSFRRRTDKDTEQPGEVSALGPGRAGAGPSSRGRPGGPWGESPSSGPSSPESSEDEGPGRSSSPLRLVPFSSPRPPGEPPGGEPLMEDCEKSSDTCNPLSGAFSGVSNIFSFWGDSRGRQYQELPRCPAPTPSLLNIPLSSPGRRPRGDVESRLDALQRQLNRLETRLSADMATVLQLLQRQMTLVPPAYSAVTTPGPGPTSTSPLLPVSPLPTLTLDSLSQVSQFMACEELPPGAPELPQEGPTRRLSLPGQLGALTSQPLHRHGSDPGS", "assay": "Patch-clamp of hERG potassium currents in transfected tsA201 cells", "type": "cell-based"}, "[4]": {"biological_target": "hNav1.4 - F1586C (Homo sapiens, UniProt P35499, F1586C)", "sequence (P35499 whole entry F1586C)": "as the sequence (P35499 whole entry) above, with F1586C counted along it", "conditions": "ref Desaphy et al., 2012, cited from earlier work"}, "[5]": {"biological_target": "hNav1.4 channels (Homo sapiens, UniProt P35499)", "sequence (P35499 whole entry)": "as the sequence (P35499 whole entry) above", "assay": "cell-based"}, "[6]": {"tested_on": "HeLa", "conditions": "100 μM; ref Ghelardini et al., 2010; cited from earlier work"}, "[7]": {"tested_on": "MRC-5", "conditions": "100 μM; ref Ghelardini et al., 2010; cited from earlier work"}, "[8]": {"conditions": "humans; ref Lalka et al., 1976; cited from earlier work"}, "[9]": {"tested_on": "murine C2C12 skeletal muscle cells", "assay": "In vitro cytotoxicity, CCK-8 cell viability", "type": "cell-based", "conditions": "C2C12, 6 h, from 100 μM to 1 mM"}, "[10]": {"conditions": "current at end of first voltage step"}},
  "note": "Values joined by “and” are separate entries in the source; they are usually repeats but may differ in a detail not shown here. Equal values may be shown once. Read-outs that look alike come from different tables or passages of the source.",
  "data": [
    {"smiles": "Cc1cccc(C)c1OCC(C)N", "note": "(stereo not drawn) [Mexiletine, mexiletine]", "values": [
      {"measurement": "In vivo Min", "setting": "[1]; minimal TRR value of the dose-response fit", "result": "18.0 ± 7.3", "unit": "%"},
      {"measurement": "maximal TRR reduction", "setting": "[1]; oral, from dose-response fit", "result": "~80", "unit": "%"},
      {"measurement": "Tonic block (0.1 Hz) nH", "setting": "[2]; ref Desaphy et al., 2012", "result": "0.9 ± 0.1"},
      {"measurement": "Phasic block (10 Hz) nH", "setting": "[2]; ref Desaphy et al., 2012", "result": "0.8 ± 0.1"},
      {"measurement": "0.1-to-10 Hz ratio", "setting": "[2]; ref Desaphy et al., 2012", "result": 10.3},
      {"measurement": "IC50", "setting": "[2]; read-out: Phasic block (10 Hz) IC50, 10 Hz, ref Desaphy et al., 2012", "result": "24 ± 2", "unit": "µM"},
      {"measurement": "concentration at which inhibition of hERG currents was complete", "setting": "[3]; [10]", "result": 1000, "unit": "µM"},
      {"measurement": "concentrations at which inhibition of hERG currents was observed", "setting": "[3]; [10]", "result": "greater than 1 μM"},
      {"measurement": "IC50", "setting": "[3]; hERG IC50, tail currents at −50 mV after test depolarization at −10 mV", "result": 43, "unit": "µM"},
      {"measurement": "ratio between hERG and hNav1.4 (myotonia-like condition) IC50", "setting": "[3]; hERG IC50 versus hNav1.4 IC50 at 50 Hz", "result": 2.5, "unit": "fold"},
      {"measurement": "hERG nH", "setting": "[3]; tail currents, Hill slope factor", "result": "0.79 ± 0.07"},
      {"measurement": "Tonic block (0.1 Hz) nH", "setting": "[4]; 0.1 Hz", "result": "1.1 ± 0.1"},
      {"measurement": "Phasic block (10 Hz) nH", "setting": "[4]; 10 Hz", "result": "1.0 ± 0.2"},
      {"measurement": "0.1-to-10 Hz ratio", "setting": "[4]; ratio of IC50 values", "result": 1.2},
      {"measurement": "In vitro nH", "setting": "[5]", "result": "1.2 ± 0.2"},
      {"measurement": "IC50", "setting": "[5]; In vitro IC50", "result": "17 µM and 16.9 µM"}
    ]},
    {"smiles": "Cc1cccc(C)c1NC(=O)C(C)N", "note": "(stereo not drawn) [Tocainide, tocainide]", "values": [
      {"measurement": "HeLa cell viability", "setting": "[6]", "result": "reduction"},
      {"measurement": "Tonic block (0.1 Hz) nH", "setting": "[2]; ref Ghelardini et al., 2010", "result": "1.0 ± 0.1"},
      {"measurement": "Phasic block (10 Hz) nH", "setting": "[2]; ref Ghelardini et al., 2010", "result": "1.1 ± 0.2"},
      {"measurement": "0.1-to-10 Hz ratio", "setting": "[2]; ref Ghelardini et al., 2010", "result": 3.8},
      {"measurement": "MRC-5 cell viability", "setting": "[7]", "result": "reduction"},
      {"measurement": "oral bioavailability", "setting": "[8]", "result": "~100", "unit": "%"},
      {"measurement": "plasma protein bound", "setting": "[8]", "result": "~50", "unit": "%"},
      {"measurement": "reduction of cell viability", "setting": "[9]", "result": "about 20%"}
    ]}
  ]
}
